The source of these data is article PMC9691367, “The PROTAC selectively degrading Bcl-xL represents a novel Hedgehog pathway inhibitor with capacity of combating resistance to Smoothened inhibitors while sparing bone growth” (Theranostics, 2022).

For series [1], the system named is Hh pathway (Gli-luciferase) provoked by Smo WT / Smo mutants. As to the kind of experiment: Dual luciferase reporter assay, Hh activity induced by ectopic Smo WT or Smo mutants in light II cells. The following applies: for IC50: 36 h. It is filed as cell-based. The source says:
(§1) The TCF/LEF luciferase reporter plasmid, NF-κB luciferase reporter plasmid, and TK-Renilla luciferase plasmid were purchased from Promega (Madison, WI, USA). Smo plasmid was purchased from Origene (Rockville, MD, USA). The Smo mutant plasmids were generated from wild type Smo plasmid using QuickChange Site-Directed Mutagenesis kit from Agilent (Santa Clara, CA, USA) and confirmed by sequencing. Information on Smo mutants plasmids is provided in Supplementary data 2. The Gli1 plasmid and Gli2-HA plasmid were obtained from Addgene (Cambridge, MA, USA). Transient transfections were performed by Lipofectamine 2000 reagent from Invitrogen (Grand Island, NY, USA) according to the manufacturer's instructions.
(§2) Cells seeded in 96-well plates were treated with various treatments as indicated. The luciferase activity in the cell lysates was measured using Dual-Luciferase Reporter Assay System (Promega, Madison, WI, USA) according to the manufacturer's instructions in a luminometer (Molecular Devices, Sunnyvale, CA). The firefly luciferase values were normalized to Renilla values.
(A reporter such as luciferase makes a cellular process visible.)

The target of a further series is Mcl-1 (Homo sapiens, UniProt Q07820). As to the kind of experiment: Competitive fluorescence polarization assay, Mcl-1 / FAM-Bim. It is filed as binding. The following applies: Mcl-1 100 nM, FAM-Bim 5 nM. The method, then:
(§3) Competitive fluorescence polarization assays were carried out in black-walled plates in assay buffer (20 mM Na2HPO4 ·12H2O, 20 mM NaH2PO4·12H2O, 1 mM EDTA, 50 mM NaCl, 0.05% PF-68). The use of protein/peptide probe pairs was as follows: Bcl-xL (5 nM) and FAM-Bad (5 nM), Bcl-2 (100 nM) and FAM-Bax (5 nM), Mcl-1 (100 nM) and FAM-Bim (5 nM). Assay buffer, proteins, drugs, and peptides were added to the assay plates sequentially. The assay plates were slightly shaken for 3 min and incubated for 30 min at room temperature. The fluorescence polarization was measured on a Synergy 2 reader (BioTek).

Series [2] deals with Hh pathway (Gli-luciferase) provoked by Gli2. The experiment in a line: Dual luciferase reporter assay, Hh activity initiated by ectopic Gli2-HA in light II cells. It is filed as cell-based.
Text: as §1, §2

Series [3] relates to light II and NIH-3T3 cells. The experiment in a line: In vitro cytotoxicity assay (MTT). The format is cell-based. The following applies: 10 μM, 72 h. On the procedure: Cells were seeded in 96-well plates at an appropriate density and treated with compounds for 72 h. The effects on proliferation were determined using MTT according to the manufacturer's protocol.
Figure S2. (A) Viability of NIH-3T3 cells and light II cells was determined by MTT cytotoxicity assays after incubation with various concentrations of SIAIS361034 as indicated for 72 h. Data represent mean ± SD (n = 3). (B) NF-κB luciferase analysis of the effect of SIAIS361034 on NF-κB signaling pathway in 293T cells.The 293T cells were transfected with NF-κB luciferase reporter and Renilla-TK plasmids and […]
μM) for 6 h. Data represent mean ± SD (n = 3). (C) TCF/LEF luciferase analysis of the effect of SIAIS361034 on Wnt signaling pathway in LS174T cells. The LS174T cellswere transfected with TCF/LEF luciferase reporter and Renilla-TK plasmids and […]
Data represent mean ± SD (n = 3).
(1 picture or pasted object on this page, not shown here)

A further series concerns Gli1 and Ptch1 mRNA. The experiment in a line: RT-qPCR of Hh target genes in NIH-3T3 cells exposed to SAG. It is filed as cell-based. To be noted: 36 h. On the procedure:
Total RNA was extracted from cells or tissues using the NucleoSpin RNA kit (#740955.50, TaKaRa). RNA reverse transcriptions were performed with PrimeScript RT Reagent Kit with RNase inhibitor (#RR037B, TaKaRa). The quantitative PCR amplifications were performed in triplicate with TB Green Premix Ex Taq (Tli RNase H Plus) (#RR420A, TaKaRa) in an iCycler iQ system (Bio-Rad; Hercules, CA). Relative gene expression for interested genes was calculated using the 2^-ΔΔCt method and normalized to mGUSB expression. Primer sequences for RT-qPCR are as follows: mGli1 forward (5′-[…]-3′), reverse (5′-[…]-3′); mPtch1 forward (5′-[…]-3′), reverse (5′-[…]-3′); mGUSB forward (5′-[…]-3′), reverse (5′-[…]-3′).

For series [4], the system named is bone growth of young mice. The experiment in a line: Bone growth of young mice (body weight, Micro-CT, H&E, IHC). It is filed as in vivo, mouse. The method, then:
Skeleton Micro-CT images of mice were taken under anesthesia. The femurs were fixed and stored in 4% PFA at 4 °C. Mice and femurs were scanned using Inveon PET-CT (Siemens). Bone tissues were computed with Inveon Acquisition Workplace (IAW). Image data were visualized and analyzed by Inveon Viewer.
Femurs were fixed in 4% PFA and decalcified in 14% EDTA for 2 weeks at 4 °C. Bone tissues were embedded in paraffin. Thin sections were stained with hematoxylin and eosin (H&E) according to the manufacturer's instructions. For immunohistochemistry (IHC), paraffin-embedded sections of femurs were baked at 60 °C for 20 min, deparaffinized by xylene for 25 min, rehydrated through ethanol series, and incubated with citrate buffer at 95 °C for 20 min for antigen retrieval. Sections were incubated with the primary antibodies as indicated overnight at 4 °C, followed by goat anti-rabbit secondary antibody. The primary antibodies used in this study include Bcl-xL (1:2000, ab178844, Abcam) and Gli1 (1:100, 101156-T10, Sino Biological).

For the next series, the target named is Bcl-xL (Homo sapiens, UniProt Q07817). The experiment in a line: Competitive fluorescence polarization assay, Bcl-xL / FAM-Bad. The following applies: Bcl-xL 5 nM, FAM-Bad 5 nM. It is filed as binding. On the procedure:
as §3

Molecules are shown by their SMILES. Where two headings read alike, the source gives them in different places.

Sequence of Mcl-1 (Q07820 whole entry, species assumed): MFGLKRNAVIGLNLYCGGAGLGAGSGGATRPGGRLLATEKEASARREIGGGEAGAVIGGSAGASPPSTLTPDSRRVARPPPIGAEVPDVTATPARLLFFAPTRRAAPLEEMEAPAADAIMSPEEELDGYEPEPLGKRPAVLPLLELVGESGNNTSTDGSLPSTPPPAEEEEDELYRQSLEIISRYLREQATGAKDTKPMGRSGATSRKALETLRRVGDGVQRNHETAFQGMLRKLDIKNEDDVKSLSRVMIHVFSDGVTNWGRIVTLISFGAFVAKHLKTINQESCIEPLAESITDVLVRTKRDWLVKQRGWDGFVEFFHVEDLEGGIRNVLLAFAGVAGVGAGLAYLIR
Sequence of Bcl-xL (Q07817 whole entry, species assumed): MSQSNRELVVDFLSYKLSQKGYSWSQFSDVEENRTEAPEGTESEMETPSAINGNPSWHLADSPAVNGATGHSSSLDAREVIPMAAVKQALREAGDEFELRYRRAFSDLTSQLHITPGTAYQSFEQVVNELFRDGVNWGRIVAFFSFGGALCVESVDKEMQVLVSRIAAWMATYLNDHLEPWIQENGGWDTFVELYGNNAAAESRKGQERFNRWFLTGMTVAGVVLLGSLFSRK

As a reminder, the IC50 is the concentration at which inhibition is half-maximal. One may read the Ki as the dissociation constant of the complex between target and ligand, obtained from inhibition or displacement. Take `CC1(C)CCC(c2ccc(Cl)cc2)=C(CN2CCN(c3ccc(C(=O)NS(=O)(=O)c4ccc(NCCCN5CCN(CCCC#Cc6cccc7c6CN(C6CCC(=O)NC6=O)C7=O)CC5)c(S(=O)(=O)C(F)(F)F)c4)cc3)CC2)C1` (centres unmarked) [SIAIS361034]: the “IC50 shift between Smo wild-type and mutations” value in series [1] (Gli-luciferase) is reported as “no significant IC50 shift”. In series [1] (Smo WT, D473H, H231R, W281C, W535L, L412F, F460L, GDC-0449 10 μM (Figure S3B-D)), the “Hh activity provoked by wild type Smo and Smo mutants” value is reported as “obviously inhibited”. Moreover, the IC50 in series [1] (ectopic Smo D473H, read-out: IC50 value, Smo D473H) is 188 nM; in series [1] (ectopic Smo F460L, read-out: IC50 value, Smo F460L) it was 147 nM; in series [1] (ectopic Smo H231R, read-out: IC50 value, Smo H231R), 117 nM; in series [1] (ectopic Smo L412F, read-out: IC50 value, Smo L412F) it was 40.4 nM; in series [1] (ectopic Smo W281C, read-out: IC50 value, Smo W281C), 92.9 nM; in series [1] (ectopic Smo W535L, read-out: IC50 value, Smo W535L), 171 nM. The half-maximal inhibitory concentration (IC50) in series [1] (ectopic Smo WT, read-out: IC50 value, Smo WT) was determined as 186 nM; in series [2] (ectopic Gli2-HA, 36 h) it was 85.1 nM. Besides, the results for the Ki at Mcl-1 and on Bcl-xL were > 10000 nM and 37.3 nM, respectively. In series [2], the “Hh activity evoked by ectopic expression of Gli2” value was “significant potency”. The “cytotoxicity (MTT)” value in series [3] was “no toxic effects”. For the same compound, in the series on Gli1 and Ptch1 mRNA, the “mRNA expression of Hh target genes Gli1 and Ptch1 activated by SAG” value was “significantly blocked”. The “columnar organization of chondrocytes in the growth plate (H&E)” value in series [4] (cross sections of the femur, mice treated P12 to P16) is reported as “not destroyed”. Moreover, the “skeleton (Micro-CT)” value in series [4] (mice at 6 weeks of age, treated P12 to P16) is “no abnormalities in the skeleton”. Moreover, the “growth plate of femurs (Micro-CT) compared with Vehicle” value in series [4] (mice treated P12 to P16) is reported as “no significant difference”. The “levels of Bcl-xL in femurs (IHC)” value in series [4] (mice treated P12 to P16) is “No change”. Moreover, in series [4] (mice treated P12 to P16, compared with Vehicle), the “expression levels of Gli1 in femurs (IHC)” value is reported as “no alteration”.
